Assay results: patent publication US20190105367A1, “ANTIMICROBIAL 4-OXOQUINOLIZINES” (Emergent Product Development Gaithersburg Inc., priority 2011, published 2019)
≈ marks a conversion by molar mass, not a printed value. Read-outs that look alike come from different tables or passages of the source.

How the values were obtained:
[1] = system: A. baumannii ATCC 19606; test: MIC without and with sub-inhibitory polymyxin B (Example 4); type: cell-based, Acinetobacter baumannii; conditions: for MIC without PB/MIC + PB: A. baumannii ATCC 19606; for MIC: Acinetobacter baumannii
[2] = system: A. baumannii ATCC 19606; test: Preliminary MBC without and with sub-inhibitory polymyxin B (Example 4); type: cell-based, Acinetobacter baumannii; conditions: Acinetobacter baumannii
[3] = system: A. baumannii J2; test: MIC without and with sub-inhibitory polymyxin B (Example 4); type: cell-based, Acinetobacter baumannii; conditions: for MIC without PB/MIC + PB: A. baumannii J2; for MIC: Acinetobacter baumannii
[4] = system: Acinetobacter sp. (H064200250); test: as above; type: cell-based; conditions: for MIC: Acinetobacter
[5] = system: A. baumannii A329; test: as above; type: cell-based, Acinetobacter baumannii; conditions: +0.06 μg/ml PB, 2nd experiment
[6] = system: A. baumannii A387; test: as above; type: cell-based, Acinetobacter baumannii; conditions: for MIC without PB/MIC + PB: A. baumannii A387; for MIC: Acinetobacter baumannii
[7] = system: A. baumannii A387; test: Preliminary MBC without and with sub-inhibitory polymyxin B (Example 4); type: cell-based, Acinetobacter baumannii; conditions: Acinetobacter baumannii
[8] = system: A. baumannii A390; test: MIC without and with sub-inhibitory polymyxin B (Example 4); type: cell-based, Acinetobacter baumannii; conditions: +0.06 μg/ml PB, 2nd experiment
[9] = system: A. baumannii A14; test: Preliminary MBC without and with sub-inhibitory polymyxin B (Example 4); type: cell-based, Acinetobacter baumannii; conditions: 2nd experiment
How it was run: (§1)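 After plating, cultures are held at 37° C for 18-20 hours; the endpoint is then scored by comparing colony growth against the positive control, with MBC defined as the lowest concentration showing roughly 90% reduction.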

[10] = system: A. baumannii A390; test: as above; type: cell-based, Acinetobacter baumannii; conditions: Acinetobacter baumannii, A390, A. baumannii A390, +0.06 μg/ml PB, 2nd experiment, read-out: MBC
How it was run: as §1

[11] = system: A. baumannii A473; test: as above; type: cell-based, Acinetobacter baumannii; conditions: Acinetobacter baumannii, A473, A. baumannii A473, +0.06 μg/ml PB, 2nd experiment, read-out: MBC
How it was run: as §1

[12] = system: A. baumannii NCTC 13301; test: as above; type: cell-based, Acinetobacter baumannii; conditions: Acinetobacter baumannii
How it was run: as §1

[13] = system: A. baumannii A401; test: MIC without and with sub-inhibitory polymyxin B (Example 4); type: cell-based, Acinetobacter baumannii; conditions: for MIC: Acinetobacter baumannii
[14] = system: A. baumannii A401; test: Preliminary MBC without and with sub-inhibitory polymyxin B (Example 4); type: cell-based, Acinetobacter baumannii; conditions: Acinetobacter baumannii, A401, A baumannii A 401, +0.06 μg/ml PB, 2nd experiment, read-out: MBC
[15] = system: A. baumannii A472; test: MIC without and with sub-inhibitory polymyxin B (Example 4); type: cell-based, Acinetobacter baumannii; conditions: for MIC: Acinetobacter baumannii
[16] = system: A. baumannii A472; test: Preliminary MBC without and with sub-inhibitory polymyxin B (Example 4); type: cell-based, Acinetobacter baumannii; conditions: Acinetobacter baumannii
[17] = system: A. baumannii A473; test: MIC without and with sub-inhibitory polymyxin B (Example 4); type: cell-based, Acinetobacter baumannii; conditions: +0.06 μg/ml PB, 2nd experiment
[18] = system: A. baumannii A489; test: as above; type: cell-based, Acinetobacter baumannii
[19] = system: A. baumannii NCTC 13301; test: as above; type: cell-based, Acinetobacter baumannii
[20] = system: A. baumannii NCTC 13301; test: as above; type: cell-based, Acinetobacter baumannii; conditions: A. baumannii NCTC 13301; +[…] PB; 2nd experiment
[21] = system: A. baumannii A14; test: as above; type: cell-based, Acinetobacter baumannii; conditions: 1st experiment
[22] = system: A. baumannii A14; test: as above; type: cell-based, Acinetobacter baumannii; conditions: 2nd experiment
[23] = system: A. baumannii A14; test: Preliminary MBC without and with sub-inhibitory polymyxin B (Example 4); type: cell-based, Acinetobacter baumannii; conditions: A. baumannii A14; +0.06 μg/ml polymyxin B; preliminary MBC; 1st experiment
[24] = ratio, PB 0.06 μg/ml, 1st experiment
[25] = A. baumannii A14, +0.06 μg/ml PB
[26] = A. baumannii A489, +[…] PB, 2nd experiment

Cc1c(-c2ccc(CN)cc2)c(F)cn2c(=O)c(C(=O)O)cc(C3CC3)c12 [Compound 6, 8-(4-aminomethyl-phenyl)-1-cyclopropyl-7-fluoro-9-methyl-4-oxo-quinolizine-3-carboxylic acid]
MIC without PB/MIC + PB ([1]; +0.06 μg/ml PB, 2nd experiment): 4
MIC without PB/MIC + PB [1, 24]: 8
MIC ([1]; ATCC19606, A. baumannii ATCC 19606, +0.06 μg/ml PB, 2nd experiment, read-out: MIC): 0.06 µg/mL (≈ 0.164 µM)
MIC ([1]; ATCC19606, read-out: MIC +0.06 μg/ml PB, A. baumannii ATCC 19606, +0.06 μg/ml polymyxin B, 1st experiment): 0.06 µg/mL
MBC ([2]; ATCC19606, A. baumannii ATCC 19606, +0.06 μg/ml PB, 2nd experiment, read-out: MBC): 0.06 µg/mL (≈ 0.164 µM)
MBC ([2]; ATCC19606, read-out: MBC +0.06 μg/ml PB, A. baumannii ATCC 19606, +0.06 μg/ml polymyxin B, 1st experiment): 0.06 µg/mL
MIC without PB/MIC + PB ([3]; +[…] PB, 2nd experiment): 32
MIC without PB/MIC + PB ([3]; ratio, PB […], 1st experiment): 16
MIC ([3]; J2): 0.25 µg/mL (≈ 0.682 µM)
MIC ([3]; J2, read-out: MIC +[…] PB, A. baumannii J2, +[…] polymyxin B, 1st experiment): 1 µg/mL (≈ 2.73 µM)
MIC [4]: 2 µg/mL (≈ 5.46 µM)
MIC without PB/MIC + PB ([4]; Acinetobacter spp. H064200250 (OXA51), +[…] PB, 2nd experiment): 8
MIC without PB/MIC + PB ([4]; Acinetobacter spp. H064200250, ratio, PB […], 1st experiment): 2
MIC ([4]; read-out: MIC +[…] PB, Acinetobacter spp. H064200250, +[…] polymyxin B, 1st experiment): 4 µg/mL (≈ 10.9 µM)
MIC without PB/MIC + PB ([5]; A. baumannii A329): 2
MIC ([5]; Acinetobacter baumannii, A329, A. baumannii A329, read-out: MIC): 8 µg/mL (≈ 21.8 µM)
MIC without PB/MIC + PB ([6]; +0.06 μg/ml PB, 2nd experiment): 4
MIC without PB/MIC + PB [6, 24]: 8
MIC ([6]; A387, A. baumannii A387, +0.06 μg/ml PB, 2nd experiment, read-out: MIC): 1 µg/mL (≈ 2.73 µM)
MIC ([6]; A387, read-out: MIC +0.06 μg/ml PB, A. baumannii A387, +0.06 μg/ml polymyxin B, 1st experiment): 0.5 µg/mL
MBC ([7]; A387, A. baumannii A387, +0.06 μg/ml PB, 2nd experiment, read-out: MBC): 1 µg/mL (≈ 2.73 µM)
MBC ([7]; A387, read-out: MBC +0.06 μg/ml PB, A. baumannii A387, +0.06 μg/ml polymyxin B, 1st experiment): 0.5 µg/mL
MIC without PB/MIC + PB ([8]; A. baumannii A390): 8
MIC ([8]; Acinetobacter baumannii, A390, A. baumannii A390, read-out: MIC): 2 µg/mL (≈ 5.46 µM)
MBC [9, 25]: 8 µg/mL (≈ 21.8 µM)
MBC ([9]; Acinetobacter baumannii, A14, A. baumannii A14, without PB, read-out: MBC): 16 µg/mL (≈ 43.7 µM)
MBC [10]: 2 µg/mL (≈ 5.46 µM)
MBC [11]: 2 µg/mL (≈ 5.46 µM)
MBC ([12]; NCTC13301): 2 µg/mL (≈ 5.46 µM)
MBC ([12]; NCTC13301, read-out: MBC +[…] PB): 4 µg/mL (≈ 10.9 µM)
MIC without PB/MIC + PB ([13]; A baumannii A 401, ratio, PB 0.06 μg/ml, 1st experiment): 4
MIC ([13]; A401, A baumannii A 401, +0.06 μg/ml PB, 2nd experiment, read-out: MIC): 4 µg/mL (≈ 10.9 µM)
MIC ([13]; A401, read-out: MIC +0.06 μg/ml PB, A baumannii A 401, +0.06 μg/ml polymyxin B, 1st experiment): 4 µg/mL
MBC [14]: 32 µg/mL (≈ 87.3 µM)
MIC without PB/MIC + PB ([15]; A. baumannii A472, ratio, PB […], 1st experiment): 16
MIC ([15]; A472): 1 µg/mL (≈ 2.73 µM)
MIC ([15]; A472, read-out: MIC +[…] PB, A. baumannii A472, +[…] polymyxin B, 1st experiment): 0.5 µg/mL (≈ 1.36 µM)
MBC ([16]; A472): 1 µg/mL (≈ 2.73 µM)
MBC ([16]; A472, read-out: MBC +[…] PB, A. baumannii A472, +[…] polymyxin B, preliminary MBC, 1st experiment): 0.5 µg/mL (≈ 1.36 µM)
MIC without PB/MIC + PB ([17]; A. baumannii A473): 4
MIC ([17]; Acinetobacter baumannii, A473, A. baumannii A473, read-out: MIC): 2 µg/mL (≈ 5.46 µM)
MIC [18, 26]: 0.5 µg/mL (≈ 1.36 µM)
MIC without PB/MIC + PB [18, 26]: 8
MIC without PB/MIC + PB ([18]; A. baumannii A489, ratio, PB […], 1st experiment): 16
MIC ([18]; Acinetobacter baumannii, A489, read-out: MIC +[…] PB, A. baumannii A489, +[…] polymyxin B, 1st experiment): 0.5 µg/mL (≈ 1.36 µM)
MIC without PB/MIC + PB ([19]; A. baumannii NCTC 13301, ratio, PB […], 1st experiment): 32
MIC ([19]; Acinetobacter baumannii, NCTC13301, read-out: MIC +[…] PB): 1 µg/mL (≈ 2.73 µM)
MIC without PB/MIC + PB [20]: 16
MIC +0.06 μg/ml PB ([21]; +0.06 μg/ml polymyxin B): 8 µg/mL
MIC without PB/MIC + PB ([21]; ratio, PB 0.06 μg/ml): 4
MIC [22, 25]: 4 µg/mL (≈ 10.9 µM)
MIC without PB/MIC + PB [22, 25]: 4
MIC ([22]; Acinetobacter baumannii, A14, A. baumannii A14, without PB, read-out: MIC): 16 µg/mL (≈ 43.7 µM)
MBC +0.06 μg/ml PB [23]: 8 µg/mL
